Results from US20160366882A1, “AGROCHEMICAL COMPOSITIONS FOR INDUCING ABIOTIC STRESS TOLERANCE” (VIB VZW, priority 2012, published 2016).

Experiments:
[1] = tested on: Oilseed rape of the variety Alessio; assay: salt tolerance in oilseed rape (vitality index after salt water irrigation); format: in vivo; conditions: 24 h later 50 ml salt water per pot, 80 grams of NaCl per liter, assessed 3 and 4 days after treatment
Method: Oilseed rape of the variety Alessio was sown in small pots (8×8×8 cm) filled with universal peat at 4 grains per pot. The plants were grown in a non-heated greenhouse until BBCH 13 (3 unfolded leaves). At that stage the number of plants per pot was reduced to 2, and the plants were either or not treated with dichloroprop-P (Duplosan DP, 600 g/l dichloroprop-P, Nufarm UK Limited), using a Birchmeier hand sprayer with an operating pressure of 2 bar. Per object 8 pots were treated. The 8 pots were put in line, 5 cm apart, and were sprayed overhead within 6 seconds. Two different concentrations of dichloroprop-P were applied: 4 mg/l or 8 mg/l. 24 hours after treatment, the plants were irrigated with salt water, giving 50 ml of water per pot at a concentration of 80 grams of NaCl per liter of water. The following days the plants were assessed visually for salt damage. Plants were divided into 3 categories: high vitality (=2), only moderate vitality (=1) or low vitality (=0), based on which a vitality index was calculated, ranging from 0 (low vitality) to 100 (high vitality).

[2] = tested on: Maize of the variety Maibi; assay: frost tolerance in maize (crop condition index after frost regime); format: in vivo; conditions: 24 h later 6 hours at −2° C., assessed 2 days after treatment
Method: Maize of the variety Maibi was sown in small pots (8×8×8 cm) filled with universal peat at 4 grains per pot. The plants were grown in a non-heated greenhouse until BBCH 13 (3 unfolded leaves). At that stage plants were either or not treated with dichloroprop-P (Duplosan DP, 600 g/l dichloroprop-P, Nufarm UK Limited), using a Birchmeier hand sprayer with an operating pressure of 2 bar. Per object 10 pots were treated. The 10 pots were put in line, 5 cm apart, and were sprayed overhead within 6 seconds. Four different concentrations of dichloroprop-P were applied: 4 mg/l, 8 mg/1, 12 mg/l or 16 mg/l. 24 hours after treatment, the plants were transferred in to a refrigerator that was set at −2° C. for 6 hours. Afterwards the plants were transferred back to the greenhouse. The day after the cold treatment (so 2 days after application of dichloroprop-P) the plants were assessed visually for frost damage. Plants were divided into 3 categories: Good crop condition (=2), only moderate crop condition (=1) or bad crop condition (=0), based on which a crop condition index was calculated, ranging from 0 (bad crop condition) to 100 (good crop condition).

[3] = tested on: catalase-2 mutant A. thaliana plantlets (cat2-2); assay: agar assay: rescue of cell death of catalase-2 mutants under photorespiratory conditions (Restricted Gas exchange Constant Light; RGCL); format: in vivo, Arabidopsis thaliana; conditions: grown under photorespiratory conditions
Method: FIG. 2: effect of 5 μM of compound 4 on the rescue of cell death of the catalase-2 mutant A. thaliana plantlets when grown under photorespiratory conditions. Photorespiratory conditions are, for example, as herein used, restricted-gas-exchange-constant light conditions. […] Photorespiration (Rp) is a major source of detrimental effects and yield losses in crop plants. Catalase is one of the crucial proteins in the Rp process since it provides the dissipation sink of photosynthetic excitation overload in the role of Rp as a photo-protective mechanism. Secondly, and as part of the same process, catalase provides effective defense against excessive hydrogen peroxide levels, without requiring additional energy from other sources. Catalase knock-out mutant plants thus provide an excellent tool to study the process of Rp (see Vandenabeele S et al., (2003) PNAS 100, 26, 16113-16118). In the disclosure, we developed a high-throughput screening assay by using a catalase-2 deficient plant. […] Fv/Fm is presented as a ratio of variable fluorescence (Fv) over the maximum fluorescence value (Fm). […] On a regular basis Fv/Fm was monitored for all wells, using a Walz Maxi PAM imager. Several days after transfer to constant light the individual wells were visually scored for cell death. […] Three persons scored independently, and only a consensus of ⅔ scores were maintained as positive hits. […]

## CC(Oc1ccc(Cl)cc1Cl)C(=O)O (stereo not shown) [dichloroprop-P]
[1]; spray 4 mg/l at BBCH 13
  vitality in salt stress conditions (salt stress tolerance): comparable increase in salt stress tolerance
[1]; spray 8 mg/l at BBCH 13
  vitality in salt stress conditions (salt stress tolerance): comparable increase in salt stress tolerance
[2]; spray 4 mg/l at BBCH 13
  crop condition after frost (frost tolerance): better crop condition after frost
[2]; spray 12 mg/l at BBCH 13
  crop condition after frost (frost tolerance): negative effect on frost tolerance
[2]; spray 16 mg/l at BBCH 13
  crop condition after frost (frost tolerance): negative effect on frost tolerance

## CCCCC(CC)COC(=O)C(C)Oc1ccc(Cl)cc1Cl (stereo not shown) [variant 1]
[3]; 100 nM
  rescue of cell death of the cat2-2 mutant: rescues cell death

## Cc1ccnc(NC(=O)COc2ccc(Cl)cc2Cl)c1 [variant 2]
[3]; 50 nM
  rescue of cell death of the cat2-2 mutant: rescues cell death
